From BindingDB's records for doi:10.1021/jm960128k (University of Illinois At Chicago, 1996)

Target: T1, Dimer of Gag-Pol polyprotein [489-587] (Human immunodeficiency virus 1, UniProt P12497)
T1 construct: 489-587
Experiment: Protease Inhibition Assay
Conditions: pH 5.5; 30 °C
Experimental: The IC50 values for the compounds were determined using purified HIV-1 Protease. Inhibition of the cleavage of the peptide H-Val-Ser-Gln-Asn-(L-beta-napthylalanine)-Pro-Ile-Val-OH was assessed at 30 °C, pH = 5.5 with [Enzyme] = 30 pM for 1 h, using HPLC with UV detection for quantification of the products. For the IC50 data a substrate concentration of 0.4 mg/mL was used, and data was fit to a four parameter sigmoidal equation.

**Q.** For `CC(C)(C)NC(=O)[C@@H]1C[C@@H]2CCCC[C@@H]2CN1C[C@@H](O)[C@H](Cc1ccccc1)NC(=O)O[C@@H]1CO[C@@H]2CCO[C@@H]21` [(3R,3aS,6aR)-hexahydrofuro[3,2-b]furan-3-yl N-[(2S,3R)-4-[(3S,4aS,8aS)-3-(tert-butylcarbamoyl)-decahydroisoquinolin-2-yl]-3-hydroxy-1-phenylbutan-2-yl]carbamate], which IC50 is on record?
**A.** > 3 µM
